Data as given in US4438120A, “Pyridoindolobenzodiazepine tranquilizers” (E. I. Du Pont de Nemours & Company, priority 1982, dated 1984).

Tested on: Conditioned Avoidance Response (CAR)
Assay: Conditioned Avoidance Response (CAR) test in mice, oral
Format: in vivo, mouse (female white mice)
Details: female white mice, moving average method
Description: The paradigm used for predicting tranquilizer activity was a Conditioned Avoidance Response (CAR) test in mice. Female white mice, 19-23 g, were used. The apparatus modified from Bovet, D. et al., Science, 163, 139-149 (1969), was a one-way shuttlebox with 0.4 mA scrambled electric footshock as unconditioned stimulus (US) and a 6 watt white light plus a relay buzzer as conditioned stimuli (CS). Mice were conditioned by three sets of 1-5 trials on day 1, then were fasted for 17-21 hours. The conditioned mice were tested for retention of the conditioned response on day 2, and then were dosed orally with test drug at doses such as 0, 1, 3, 9, 27 and 81 mg/kg. ED50 values (doses at which 50% of the animals would be expected to show response failure) were calculated by the moving average method [Thompson, W. R., Bact. Rev., 11, 115 (1947)].

SMILES | Mouse CAR ED50 (avoidance ED50, dose at which 50% of the animals would be expected to show response failure) [mg/kg]
O=C1Nc2cccc3c4c(n(c23)-c2ccccc21)CCNC4 [Example 2, 1,2,3,4-tetrahydropyrido[4',3':2,3]indolo[1,7-ab][1,4]benzodiazepin-9(8H)-one] | 39
CCN1CC[C@@H]2[C@@H](C1)c1cccc3c1N2c1ccccc1CN3C (relative stereo) [Example 104] | 41
O=C1Nc2ccc(Cl)c3c4c(n(c23)-c2ccccc21)CCNC4 [Example 3] | 45
O=C1Nc2cc(C(F)(F)F)cc3c4c(n(c23)-c2ccc(Cl)cc21)CCNC4 [Example 21] | > 81
Clc1ccc2c(c1)CNc1cccc3c1N2[C@@H]1CCN(CC2CC2)C[C@@H]31 (relative stereo) [Example 109] | 2.1
Cc1ccc2c(c1)CNc1cc(Cl)cc3c1N2[C@@H]1CCN(CCc2ccccc2)C[C@@H]31 (relative stereo) [Example 113] | 3.5
c1ccc2c(c1)CNc1cccc3c1N2[C@@H]1CCN(CC2CCCCC2)C[C@@H]31 (relative stereo) [Example 111] | 3.3
